Patent publication US20070059272A1 (priority 2005, published 2007)
Entries after “also recorded” stand apart in the source; their conditions may differ.

Assays:
[1] = system: PA-I promoter activity in reporter strain PA27853/PLL-EGFP
[2] = system: intestinal epithelial cells; settings: cited from earlier work; for adhesion of P. aeruginosa to intestinal epithelial cells: 0.6% solution
[3] = system: PA-I mRNA in PA27853; test: PA-I mRNA in PA27853 exposed to Caco-2 cells or cell fractions with and without GalNac; assay type: cell-based, Pseudomonas aeruginosa; settings: in the presence of GalNac
Protocol: Using Caco-2 intestinal epithelial cells, the issue of whether components of intestinal epithelial cells themselves played a role in triggering the expression of PA-I was addressed. Strain PA27853 was exposed to media (apical and basolateral) and Caco-2 cell fractions (cytosolic, nuclear, membrane) at various time intervals. PA-I mRNA was measured in PA27853 in response to the various Caco-2 cell media fractions in the presence and absence of GalNac, a sugar that binds specifically to PA-I and prevents P. aeruginosa adherence to Caco-2 cells. Media alone from Caco-2 cells grown in transwells (apical or basolateral) had no effect on PA-I expression. However, Caco-2 cell membrane fractions triggered the accumulation of a very high abundance of PA-I mRNA (>10 fold increase)-an effect that was attenuated in the presence of GalNac (FIG. 7A). These in vitro findings are in agreement with the above mouse studies showing that PA-I can be activated in response to contact with the intestinal epithelium, yet in the unstressed Caco-2 cell system, luminal contents (apical media) had no effect, similar to the control mice. […]

[4] = system: pyocyanin (PCN) production in P. aeruginosa PAO1; assay type: cell-based, Pseudomonas aeruginosa
[5] = molecular target: PA-I (Pseudomonas aeruginosa, UniProt Q05097); settings: cited from earlier work
PA-I, sequence (Q05097 whole entry): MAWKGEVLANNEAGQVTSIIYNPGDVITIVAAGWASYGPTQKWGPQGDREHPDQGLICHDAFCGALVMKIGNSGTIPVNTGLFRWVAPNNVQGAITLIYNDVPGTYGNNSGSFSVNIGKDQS

[6] = system: PA-IL in P. aeruginosa; settings: cited from earlier work
[7] = system: PA-I expression in P. aeruginosa; assay type: cell-based, Pseudomonas aeruginosa
[8] = system: membrane fractions of P. aeruginosa (PAO1); test: ELISA binding to membrane fractions and solubilized membrane proteins of P. aeruginosa PAO1; design: species or system Pseudomonas aeruginosa; settings: human cytokines, ELISA
[9] = molecular target: membrane proteins of P. aeruginosa strain PAO1 (whole fixed cells, membrane fractions, solubilized membrane proteins)

Molecule: Nc1ncnc2c1ncn2[C@@H]1O[C@H](COP(=O)(O)OP(=O)(O)O)[C@@H](O)[C@H]1O [ADP]
- PA-I expression, nucleosides and nucleotides [1]: no evident inducing effects

Molecule: Nc1ncnc2c1ncn2[C@@H]1O[C@H](COP(=O)(O)O)[C@@H](O)[C@H]1O [AMP]
- PA-I expression, nucleosides and nucleotides [1]: no evident inducing effects

Molecule: Nc1ncnc2c1ncn2[C@@H]1O[C@H](COP(=O)(O)OP(=O)(O)OP(=O)(O)O)[C@@H](O)[C@H]1O [ATP]
- PA-I expression, nucleosides and nucleotides [1]: no evident inducing effects

Molecule: C[C@@H](O)C(=O)O [D-lactate]
- PA-I promoter activity, candidate compounds in HDMEM [1]: no effect

Molecule: CC(=O)N[C@H]1C(O)O[C@H](CO)[C@H](O)[C@@H]1O (stereo partly drawn) [GalNAc, N-acetyl-D-galactosamine]
- adhesion of P. aeruginosa to intestinal epithelial cells [2]: markedly decreased adhesion
- barrier function of intestinal epithelial cells [2]: do not alter their barrier function
- PA-I mRNA increase in PA27853 densely adhered to Caco-2 cells [3]: nearly completely abolished
- PA-I mRNA increase triggered by Caco-2 cell membrane fractions [3]: attenuated

Molecule: C[C@H](O)C(=O)O [L-lactate]
- PA-I promoter activity, candidate compounds in HDMEM [1]: no effect

Molecule: COC(=O)c1ccccc1N [MA, methyl anthranilate]
- effect on ability of U-50,488 to enhance PCN production [4]: inhibited the ability of U-50,488 to enhance PCN production

Molecule: Nc1ncnc2c1ncn2[C@@H]1O[C@H](CO)[C@@H](O)[C@H]1O [adenosine]
- PA-I expression, nucleosides and nucleotides [1]: both dose- and time-dependent
- PA-I promoter activity, candidate compounds in HDMEM [1]: enhanced fluorescence

Molecule: OC[C@H]1O[C@@H](n2cnc3c(O)ncnc32)[C@H](O)[C@@H]1O [inosine]
- inosine concentration inducing PA-I expression, fold less than adenosine of equivalent effect [1]: 10 fold
- onset of PA-I expression compared with adenosine [1]: earlier time point
- size of effect on PA-I expression compared with adenosine [1]: greater

Molecule: OC[C@H]1O[C@H](OCC2O[C@@H](O)[C@H](O)[C@@H](O)[C@@H]2O)[C@H](O)[C@@H](O)[C@H]1O (some centres unmarked) [mellibiose]
- binding affinity to PA-I [5]: highest binding affinity to date
- adhesion of P. aeruginosa to intestinal epithelial cells [2]: markedly decreased adhesion
- barrier function of intestinal epithelial cells [2]: do not alter their barrier function

Molecule: Oc1ccc2c3c1O[C@H]1c4[nH]c5c(c4C[C@@]4(O)[C@@H](C2)N(CC2CC2)CC[C@]314)C[C@@]1(O)[C@H]2Cc3ccc(O)c4c3[C@@]1(CCN2CC1CC1)[C@H]5O4 [norbinaltorphimine, nor-binaltorphimine]
- dose that completely inhibits enhanced PCN production [4]: 200 µM
- effect on U-50,488-enhanced PCN production [4]: attenuates enhanced PCN production

Molecule: NC[C@H](O)c1ccc(O)c(O)c1 [norepinephrine]
- effect on QS-dependent virulence factor PA-IL [6]: can also affect
- PA-I expression, in vitro studies [7]: did not change PA-I expression; also recorded: not affected

Molecule: EGF: human cytokine tested for membrane binding
- binding to P. aeruginosa cell membranes [8]: No binding

Molecule: IL-4: human cytokine
- binding to P. aeruginosa cell membranes [8]: No binding

Molecule: IL-10: human cytokine
- binding to P. aeruginosa cell membranes [8]: No binding

Molecule: TGF-β
- binding to P. aeruginosa cell membranes [8]: No binding

Molecule: dynorphin
- PCN production (OD520 nm) [4]: enhanced PCN production in a dose-dependent manner

Molecule: recombinant human Interferon gamma (IFN-γ) (from UniProt P01579 24-166) (ligand)
- percent of bacterial cells that bound IFN-γ [9]: 73%

B1: adenosine deaminase: enzyme added to deplete the media of adenosine (protein, UniProt P00813 2-363, looked up)
Adenosine deaminase: AQTPAFDKPKVELHVHLDGSIKPETILYYGRRRGIALPANTAEGLLNVIGMDKPLTLPDFLAKFDYYMPAIAGCREAIKRIAYEFVEMKAKEGVVYVEVRYSPHLLANSKVEPIPWNQAEGDLTPDEVVALVGQGLQEGERDFGVKARSILCCMRHQPNWSPKVVELCKKYQQQTVVAIDLAGDETIPGSSLLPGHVQAYQEAVKSGIHRTVHAGEVGSAEVVKEAVDILKTERLGHGYHTLEDQALYNRLRQENMHFEICPWSSYLTGAWKPDTEHAVIRLKNDQANYSLNTDDPLIFKSTLDTDYQMTKRDMGFTEEEFKRLNINAAKSSFLPEDEKRELLDLLYKAYGMPPSASAGQNL
- PA-I expression after depleting adenosine from media of HIF-1-a-activated Caco-2 cells ([1]; Caco-2): even greater increase in PA-I expression
